Measurements taken from ChEMBL document CHEMBL4138148, “Discovery of novel pyrrolo-pyridine/pyrimidine derivatives bearing pyridazinone moiety as c-Met kinase inhibitors” (Eur J Med Chem, 2017).

Tests used:
Test in all cases: cells
MCF7 = conditions: Homo sapiens, MCF7, 72 h
Description: Cytotoxicity against human MCF7 cells assessed as reduction in cell viability after 72 hrs by MTT assay

A549 = conditions: Homo sapiens, A549, 72 h
Description: Cytotoxicity against human A549 cells assessed as reduction in cell viability after 72 hrs by MTT assay

PC-3 = conditions: Homo sapiens, PC-3, 72 h
Description: Cytotoxicity against human PC3 cells assessed as reduction in cell viability after 72 hrs by MTT assay

HepG2 = conditions: Homo sapiens, HepG2, 72 h
Description: Cytotoxicity against human HepG2 cells assessed as reduction in cell viability after 72 hrs by MTT assay

| IC50 (MCF7) [µM] | IC50 (A549) [µM] | IC50 (PC-3) [µM] | IC50 (HepG2) [µM] | Structure (SMILES) |
| --- | --- | --- | --- | --- |
| 10.8 | > 60 | > 60 | 33.8 | Cc1ccc(-n2nc(C(=O)Nc3ccc(Oc4ncnc5c4ccn5C)cc3)c(C)cc2=O)cc1 |
| 55.4 | > 60 | 46.4 | > 60 | COc1ccc(-n2ccc(=O)c(C(=O)Nc3ccc(Oc4ccnc5[nH]ccc45)c(F)c3)n2)cc1 |
| > 60 | > 60 | > 60 | > 60 | Cn1ccc2c(Oc3ccc(NC(=O)c4nn(-c5ccccc5)ccc4=O)cc3F)ccnc21 |
| 18.9 | 18.5 | 20.4 | 18.8 | Cc1ccc(-n2nc(C(=O)Nc3ccc(Oc4ncnc5[nH]ccc45)c(F)c3)c(C)cc2=O)cc1 |
| 30.8 | 23.4 | > 60 | > 60 | Cc1cc(=O)n(-c2cccc(F)c2)nc1C(=O)Nc1ccc(Oc2ncnc3c2ccn3C)cc1 |
| 18.4 | 17.7 | 20.9 | 13.5 | Cn1ccc2c(Oc3ccc(NC(=O)c4nn(-c5ccc(Cl)c(C(F)(F)F)c5)ccc4=O)cc3F)ccnc21 |
| 11.6 | 10.3 | 13.6 | 9.61 | O=C(Nc1ccc(Oc2ccnc3[nH]ccc23)c(F)c1)c1nn(-c2ccc(Cl)c(F)c2)ccc1=O |
| 11.8 | 35.1 | 15.6 | 26.3 | Cc1cc(=O)n(-c2cccc(C(F)(F)F)c2)nc1C(=O)Nc1ccc(Oc2ncnc3[nH]ccc23)c(F)c1 |
| 7.89 | 6.24 | 8.04 | 4.28 | O=C(Nc1ccc(Oc2ccnc3[nH]ccc23)cc1)c1nn(-c2ccc(Br)cc2)ccc1=O |
| 16.8 | > 60 | 32.7 | > 60 | Cn1ccc2c(Oc3ccc(NC(=O)c4nn(-c5ccc(Cl)c(F)c5)ccc4=O)cc3)ccnc21 |
| 10.6 | 25.1 | 32.4 | 19.5 | O=C(Nc1ccc(Oc2ccnc3[nH]ccc23)cc1)c1nn(-c2ccc(Cl)cc2)ccc1=O |
| 4.13 | 5.12 | 16.4 | 11.2 | Cc1cc(=O)n(-c2ccccc2Cl)nc1C(=O)Nc1ccc(Oc2ncnc3c2ccn3C)cc1 |
| 7.84 | 5.86 | 19.1 | 27.2 | Cc1cc(=O)n(-c2ccccc2C(F)(F)F)nc1C(=O)Nc1ccc(Oc2ncnc3c2ccn3C)cc1 |
| 16.2 | 59.4 | 23 | 39.2 | Cn1ccc2c(Oc3ccc(NC(=O)c4nn(-c5ccc(Br)cc5)ccc4=O)cc3)ccnc21 |
| 27 | 25.2 | 5.16 | > 60 | Cc1cc(=O)n(-c2ccccc2OC(F)(F)F)nc1C(=O)Nc1ccc(Oc2ncnc3c2ccn3C)cc1 |
| 45.1 | 51.7 | 58.2 | 56.2 | Cn1ccc2c(Oc3ccc(NC(=O)c4nn(-c5ccccc5)ccc4=O)cc3)ccnc21 |
| > 60 | > 60 | > 60 | > 60 | COc1ccc(-n2ccc(=O)c(C(=O)Nc3ccc(Oc4ccnc5c4ccn5C)c(F)c3)n2)cc1 |
| > 60 | > 60 | > 60 | > 60 | Cc1cc(=O)n(-c2ccccc2Cl)nc1C(=O)Nc1ccc(Oc2ncnc3c2ccn3C)c(F)c1 |
| 11.6 | > 60 | 40.8 | 68 | O=C(Nc1ccc(Oc2ccnc3[nH]ccc23)c(F)c1)c1nn(-c2ccc(Br)cc2)ccc1=O |

| IC50 (MCF7) [µM] | IC50 (A549) [µM] | IC50 (PC-3) [µM] | IC50 (HepG2) [µM] | Structure (SMILES) |
| --- | --- | --- | --- | --- |
| 11.6 | 13.4 | 5.5 | 11.9 | O=C(Nc1ccc(Oc2ccnc3[nH]ccc23)c(F)c1)c1nn(-c2ccc(Cl)c(C(F)(F)F)c2)ccc1=O |
| 19.8 | 35.7 | 20.5 | 31.2 | Cn1ccc2c(Oc3ccc(NC(=O)c4nn(-c5ccc(Br)cc5F)ccc4=O)cc3)ccnc21 |
| 23.5 | 55.7 | 8.8 | 56.5 | O=C(Nc1ccc(Oc2ccnc3[nH]ccc23)c(F)c1)c1nn(-c2ccc(Br)cc2F)ccc1=O |
| 4.56 | 7.57 | 3.46 | 9.47 | Cc1cc(=O)n(-c2cccc(C(F)(F)F)c2)nc1C(=O)Nc1ccc(Oc2ncnc3[nH]ccc23)cc1 |
| > 60 | > 60 | 42.5 | > 60 | O=C(Nc1ccc(Oc2ccnc3[nH]ccc23)c(F)c1)c1nn(-c2ccc(Cl)cc2)ccc1=O |
| > 60 | > 60 | 50.5 | > 60 | Cc1ccc(-n2nc(C(=O)Nc3ccc(Oc4ncnc5c4ccn5C)c(F)c3)c(C)cc2=O)cc1 |
| 9.67 | 34.8 | 14.6 | 3.18 | Cc1cc(=O)n(-c2cccc(F)c2)nc1C(=O)Nc1ccc(Oc2ncnc3[nH]ccc23)cc1 |
| 15.6 | 10.5 | 15 | 17.8 | O=C(Nc1ccc(Oc2ccnc3[nH]ccc23)cc1)c1nn(-c2ccccc2)ccc1=O |
| 17.9 | 26.1 | 12.8 | 46.4 | O=C(Nc1ccc(Oc2ccnc3[nH]ccc23)cc1)c1nn(-c2ccc(Br)cc2F)ccc1=O |
| 24.5 | 42.4 | 17.3 | 12.8 | Cc1cc(=O)n(-c2ccc(F)cc2)nc1C(=O)Nc1ccc(Oc2ncnc3[nH]ccc23)c(F)c1 |
| > 60 | > 60 | > 60 | > 60 | Cn1ccc2c(Oc3ccc(NC(=O)c4nn(-c5ccc(Cl)cc5)ccc4=O)cc3F)ccnc21 |
| 21.6 | 53.1 | > 60 | 50.8 | COc1ccc(-n2ccc(=O)c(C(=O)Nc3ccc(Oc4ccnc5[nH]ccc45)cc3)n2)cc1 |
| 14.1 | 26.8 | 16.3 | 23.9 | Cn1ccc2c(Oc3ccc(NC(=O)c4nn(-c5ccc(Br)cc5F)ccc4=O)cc3F)ccnc21 |
| > 60 | 35.4 | 25.9 | > 60 | Cc1cc(=O)n(-c2ccccc2C(F)(F)F)nc1C(=O)Nc1ccc(Oc2ncnc3c2ccn3C)c(F)c1 |
| 11.7 | 16.2 | > 60 | > 60 | Cc1cc(=O)n(-c2ccccc2OC(F)(F)F)nc1C(=O)Nc1ccc(Oc2ncnc3[nH]ccc23)c(F)c1 |
| > 60 | > 60 | 8.99 | > 60 | Cc1cc(=O)n(-c2cccc(F)c2)nc1C(=O)Nc1ccc(Oc2ncnc3c2ccn3C)c(F)c1 |
| 26.6 | 6.12 | 13.3 | 32 | Cc1cc(=O)n(-c2ccc(Br)cc2F)nc1C(=O)Nc1ccc(Oc2ncnc3[nH]ccc23)c(F)c1 |
| 15.2 | 11.4 | 10.3 | 23.4 | Cn1ccc2c(Oc3ccc(NC(=O)c4nn(-c5ccc(Cl)c(C(F)(F)F)c5)ccc4=O)cc3)ccnc21 |
| > 60 | > 60 | > 60 | > 60 | COc1ccc(-n2ccc(=O)c(C(=O)Nc3ccc(Oc4ccnc5c4ccn5C)cc3)n2)cc1 |
